According to patent EP1379135B1, “FORMULATIONS COMPRISING ENTRAPPED ACTIVE INGREDIENTS AND USES THEREOF” (THE SCRIPPS RESEARCH INSTITUTE, priority 2001, dated 2002):
“Also recorded” adds a separate entry of the source.

Assays:
[1] = test system: TNFα induced nitric oxide (NO) production in normal human articular chondrocytes; assay: TNFα induced NO production in chondrocytes; format: cell-based
chondrocytes = assay: Cell viability, MTT assay; format: cell-based, human; conditions: up to 20 mM
[2] = test system: IL-1β induced NO production in normal human articular chondrocytes; assay: IL-1β induced NO production in cultured chondrocytes (NO2 accumulation, Griess reaction); format: cell-based; conditions: for inhibitory activity on IL-1β induced NO production: concentration of 10 mM
Method: Chondrocytes were isolated from the cartilage by collagenase digestion and maintained in continuous monolayer cultures in DMEM containing 10% fetal bovine serum (FBS). Cell viability after chondrocyte isolation by collagenase digestion of normal cartilage was >95%. This level was maintained for at least 96 hrs post mortem. […] Experiments reported were performed with primary or first passage cells.
Chondrocytes were plated at 40,000 cells/well in 96-well plates in the presence of 1 % FBS. After 48 h, the medium was changed, and the cells were stimulated with IL-1β (Sigma) at a concentration of 5 ng/ml for 24 h. NO production was detected as NO2 accumulation in the culture supernatants by the Griess reaction as described elsewhere (Heval et al., (1994) Methods Enzymol. 233:250). IL-6 in the culture supernatants was measured by ELISA (R&D Systems, Minneapolis, MN) in accordance with the supplier's protocol.

bradykinin-induced pain = assay: Bradykinin-induced pain after intra-articular administration (walking behavior pain score); format: in vivo, Wistar rats; conditions: intra-articular administration in rats; Figure 6
Method: The purpose of this study was to investigate the analgesic effects of GlcNAc with or without liposomal formulations, injected intra-articularly into the joint of Wistar rats. Pain was induced by intra-articular administration of bradykinin. Adult male Wistar rats with a weight range from 220g to 250g were obtained from Laboratory Animals Centre, National University of Singapore. Bradykinin and GlcNAc were obtained from Sigma. The liposomes were prepared as described above.
50 µl of GlcNAc solution or an GIcNAc formulated liposome suspension was injected into a rat joint cavity. An equal volume of saline was given intra-articularly as a control. 50 µl of bradykinin (60 µg/ml or at the indicated concentration) was given intra-articularly at different time points following the administration of GlcNAc.
Changes in walking behavior caused by intra-articular injection of bradykinin were used to define induced pain criteria in rats. The methods used to observe the pain response are defined in Table 2. The degree of pain was assigned a score according to the criteria in Table 3.

Row | Compound | TNFα induced nitric oxide (NO) production [1] | NO production triggered by IL-1β [2] | inhibitory activity on IL-1β induced NO production [2] | other results
1 | N[C@H]1C(O)O[C@H](CO)[C@@H](O)[C@@H]1O (stereo partly shown) [GA, glucosamine] | inhibit | suppressed NO production; also recorded: measurably inhibited NO production in the lower millimolar range | – | cell viability (chondrocytes): Neither GA nor GlcNAc at dosages up to 20 mM affected cell viability; concentrations not effective in inhibiting NO production [2]: below 1 mM; IC50 ([2]; Homo sapiens, Chondrocyte, IL-1β 5 ng/ml for 24 h, GlcNAc vs GA p < 0.01, read-out: IC50 (inhibition of NO production)): 14.9 ± 2.1 mM
2 | CC(=O)N[C@H]1[C@H](O[C@H]2[C@H](O)[C@@H](NC(C)=O)C(O)O[C@@H]2CO)O[C@H](CO)[C@@H](O)[C@@H]1O (stereo partly shown) [GlcNAc dimers, N,N'-diacetylchitobiose] | – | did not express inhibitory activity | – | –
3 | CC(=O)N[C@H]1C(O)O[C@H](CO)[C@H](O)[C@@H]1O (stereo partly shown) [N-acetylgalactosamine] | – | – | demonstrated inhibitory activity | –
4 | CC(=O)N[C@@H]1C(O)O[C@H](CO)[C@@H](O)[C@@H]1O (stereo partly shown) [N-acetylmannosamine] | did not inhibit | – | did not inhibit | –
5 | O=C[C@H](O)[C@@H](O)[C@H](O)[C@H](O)C(=O)O [glucuronic acid] | did not inhibit | – | did not inhibit | –
6 | CC(=O)N[C@H]1[C@H](O[C@H]2[C@H](O)[C@@H](NC(C)=O)C(O)O[C@@H]2CO)O[C@H](CO)[C@@H](O[C@@H]2O[C@H](CO)[C@@H](O)[C@H](O)[C@H]2NC(C)=O)[C@@H]1O (stereo partly shown) [trimers, N,N',N"-triacetylchitotriose] | – | did not express inhibitory activity | – | –
7 | Bradykinin (RPPGFSPFR; Bradykinin; UniProt P01042 381-389, looked up) | – | – | – | pain scores, dose response (bradykinin-induced pain): Higher pain scores correlate with the amount of injected Bradykinin
